Measurements published in patent publication US11878965B2, “Inhibitors of peptidylarginine deiminases” (Gilead Sciences, Inc., priority 2020, dated 2024).

The compounds below were run against human PAD4 (Homo sapiens (Human), UniProt Q9UM07) (assay: In Vitro PAD4 BAEE Biochemical Assay). Settings: human PAD4, BAEE substrate; 5 nM PAD4, 2 mM calcium chloride, 3 mM BAEE; geometric mean of multiple experiments.
Outline: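 Deimination of BAEE substrate (3 mM) measured as ammonia via o-phthalaldehyde–DTT isoindole fluorescence, 405/535 nm. Tag-free bacterially expressed human PAD4 at 5 nM with 2 mM calcium chloride, pH 7.6 MOPS buffer, 30 min compound preincubation then 2 h reaction, both at 25 °C.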

human PAD4, sequence (Q9UM07 2-663): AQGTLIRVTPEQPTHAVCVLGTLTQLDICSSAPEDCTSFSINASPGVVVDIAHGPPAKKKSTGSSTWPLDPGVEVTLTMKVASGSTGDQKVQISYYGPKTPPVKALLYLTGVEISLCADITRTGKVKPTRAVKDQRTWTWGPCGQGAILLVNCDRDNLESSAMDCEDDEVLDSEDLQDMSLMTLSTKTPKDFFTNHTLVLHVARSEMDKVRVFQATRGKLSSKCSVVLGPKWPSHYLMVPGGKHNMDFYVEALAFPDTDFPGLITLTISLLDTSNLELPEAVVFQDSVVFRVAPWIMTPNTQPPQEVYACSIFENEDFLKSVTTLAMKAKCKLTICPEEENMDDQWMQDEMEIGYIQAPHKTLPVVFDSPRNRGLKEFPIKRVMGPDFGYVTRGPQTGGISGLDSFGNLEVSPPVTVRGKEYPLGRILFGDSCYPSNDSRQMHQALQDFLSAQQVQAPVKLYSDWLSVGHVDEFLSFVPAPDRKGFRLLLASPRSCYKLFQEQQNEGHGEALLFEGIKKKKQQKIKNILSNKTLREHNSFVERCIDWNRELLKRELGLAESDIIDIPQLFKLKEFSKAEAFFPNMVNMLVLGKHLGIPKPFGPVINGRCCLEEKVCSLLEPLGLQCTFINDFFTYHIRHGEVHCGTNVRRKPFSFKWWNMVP

Structure (SMILES)	IC50 [nM]
C[C@@H](NC(=O)[C@H]1CC1(F)F)c1ccc2cc(-c3nc4cc(C(=O)N5C[C@H](N)[C@@H]6CC[C@H]5C6)cc(F)c4n3C3CC3)n(CC3CC3)c2n1 [Example 227, (R)-N-((R)-1-(2-(5-((1S,4R,5R)-4-amino-2-azabicyclo[3.2.1]octane-2-carbonyl)-1-cyclopropyl-7-fluoro-1H-benzo[d]imidazol-2-yl)-1-(cyclopropylmethyl)-1H-pyrrolo[2,3-b]pyridin-6-yl)ethyl)-2,2-difluorocyclopropane-1-carboxamide]	46.8
COc1cc(C(=O)N2[C@H]3CC[C@@H]2[C@H](N)C3)cc2nc(-c3cc4ccc([C@@H](C)NC(=O)C56CC(F)(C5)C6)nc4n3CC3CC3)n(C3CC3)c12 [Example 130, N-((R)-1-(2-(5-((1R,2R,4S)-2-amino-7-azabicyclo[2.2.1]heptane-7-carbonyl)-1-cyclopropyl-7-methoxy-1H-benzo[d]imidazol-2-yl)-1-(cyclopropylmethyl)-1H-pyrrolo[2,3-b]pyridin-6-yl)ethyl)-3-fluorobicyclo[1.1.1]pentane-1-carboxamide]	45.1
COc1cc(C(=O)N2[C@H]3CC[C@@H]2[C@H](N)C3)cc2nc(-c3cc4ccc([C@@H](C)NC(=O)[C@@H]5CC5(F)F)nc4n3CC3CC3)n(C)c12 [Example 202, (S)-N-((R)-1-(2-(5-((1R,2R,4S)-2-amino-7-azabicyclo[2.2.1]heptane-7-carbonyl)-7-methoxy-1-methyl-1H-benzo[d]imidazol-2-yl)-1-(cyclopropylmethyl)-1H-pyrrolo[2,3-b]pyridin-6-yl)ethyl)-2,2-difluorocyclopropane-1-carboxamide]	58.7
COc1cc(C(=O)N2[C@H]3CC[C@@H]2[C@H](N)C3)cc2nc(-c3cc4ccc([C@@H](C)NC(=O)C5(OC)CCC5)cc4n3CC3CC3)n(C)c12 [Example 141, N-((R)-1-(2-(5-((1R,2R,4S)-2-amino-7-azabicyclo[2.2.1]heptane-7-carbonyl)-7-methoxy-1-methyl-1H-benzo[d]imidazol-2-yl)-1-(cyclopropylmethyl)-1H-indol-6-yl)ethyl)-1-methoxycyclobutane-1-carboxamide]	63.3
CCN(c1ccc2cc(-c3nc4cc(C(=O)N5CCC[C@@H](N)[C@H]5C)cc(OC)c4n3CC3(C)CC3)n(CC3CC3)c2n1)S(C)(=O)=O [Example 40, N-(2-(5-((2R,3R)-3-amino-2-methylpiperidine-1-carbonyl)-7-methoxy-1-((1-methylcyclopropyl)methyl)-1H-benzo[d]imidazol-2-yl)-1-(cyclopropylmethyl)-1H-pyrrolo [2,3-b]pyridin-6-yl)-N-ethylmethanesulfonamide]	329
CS(=O)(=O)N(c1ccc2cc(-c3nc4cc(C(=O)N5CCC[C@@H](N)C5)ccc4n3C3CC3)n(CC3CC3)c2n1)C(F)F [Example 54, (R)-N-(2-(5-(3-aminopiperidine-1-carbonyl)-1-cyclopropyl-1H-benzo[d]imidazol-2-yl)-1-(cyclopropylmethyl)-1H-pyrrolo[2,3-b]pyridin-6-yl)-N-(difluoromethyl) methanesulfonamide]	37.4
COc1cc(C(=O)N2[C@H]3CC[C@@H]2[C@H](N)C3)cc2nc(-c3cc4ccc([C@H]5CCCN5C(=O)C(C)(C)C)nc4n3CC3CC3)n(C)c12 [Example 246, 1-((R)-2-(2-(5-((1R,2R,4S)-2-amino-7-azabicyclo[2.2.1]heptane-7-carbonyl)-7-methoxy-1-methyl-1H-benzo[d]imidazol-2-yl)-1-(cyclopropylmethyl)-1H-pyrrolo[2,3-b]pyridin-6-yl)pyrrolidin-1-yl)-2,2-dimethylpropan-1-one]	48.4
COc1cc(C(=O)N2CCC[C@@H](N)C2)cc2nc(-c3cc4ccc(-c5cccnc5-c5csc(N6CCCCC6)n5)nc4n3CC3CC3)n(C)c12 [Example 270, (R)-(3-aminopiperidin-1-yl)(2-(1-(cyclopropylmethyl)-6-(2-(2-(piperidin-1-yl)thiazol-4-yl)pyridin-3-yl)-1H-pyrrolo[2,3-b]pyridin-2-yl)-7-methoxy-1-methyl-1H-benzo[d]imidazol-5-yl)methanone]	351
COc1cc(C(=O)N2CCCC3(CCCN3)C2)cc2nc(-c3cc4ccc(N(C(F)F)S(C)(=O)=O)nc4n3CC3CC3)n(C)c12 (centres unmarked) [Example 74, N-(1-(cyclopropylmethyl)-2-(7-methoxy-1-methyl-5-(1,7-diazaspiro[4.5]decane-7-carbonyl)-1H-benzo[d]imidazol-2-yl)-1H-pyrrolo[2,3-b]pyridin-6-yl)-N-(difluoromethyl) methanesulfonamide]	50000
COc1cc(C(=O)N2[C@@H]3CC[C@@H](N)[C@H]2CC3)cc2nc(-c3cc4ccc(N(C(F)F)S(C)(=O)=O)nc4n3CC3CC3)n(C3CC3)c12 [Example 50, N-(2-(5-((1R,2R,5R)-2-amino-8-azabicyclo[3.2.1]octane-8-carbonyl)-1-cyclopropyl-7-methoxy-1H-benzo[d]imidazol-2-yl)-1-(cyclopropylmethyl)-1H-pyrrolo [2,3-b]pyridin-6-yl)-N-(difluoromethyl) methanesulfonamide]	145

Further lines, results first:

IC50 [nM]	Structure (SMILES)
388	COc1cc(C(=O)N2C[C@H](N)CCN2C)cc2nc(-c3cc4ccc([C@@H](C)NC(=O)C(F)(F)c5ccccc5)nc4n3CC3CC3)n(C)c12 [Example 167, N-((R)-1-(2-(5-((R)-5-amino-2-methylhexahydropyridazine-1-carbonyl)-7-methoxy-1-methyl-1H-benzo[d]imidazol-2-yl)-1-(cyclopropylmethyl)-1H-pyrrolo[2,3-b]pyridin-6-yl)ethyl)-2,2-difluoro-2-phenylacetamide]
93.4	COc1cc(C(=O)N2C[C@H](N)CC[C@@H]2C)cc2nc(-c3cc4ccc(N(C(F)F)S(C)(=O)=O)nc4n3CC3CC3)n(C)c12 [Example 38, N-(2-(5-((2S,5R)-5-amino-2-methylpiperidine-1-carbonyl)-7-methoxy-1-methyl-1H-benzo[d]imidazol-2-yl)-1-(cyclopropylmethyl)-1H-pyrrolo [2,3-b]pyridin-6-yl)-N-(difluoromethyl) methanesulfonamide]
83	COc1cc(C(=O)N2CCC[C@@H](N)C2)cc2nc(-c3cc4ccc(N(C(F)F)S(C)(=O)=O)nc4n3CC3CC3)n(C)c12 [Example 18, (R)-N-(2-(5-(3-aminopiperidine-1-carbonyl)-7-methoxy-1-methyl-1H-benzo[d]imidazol-2-yl)-1-(cyclopropylmethyl)-1H-pyrrolo[2,3-b]pyridin-6-yl)-N-(difluoromethyl) methanesulfonamide]
138	COc1cc(C(=O)N2C[C@H](N)CC[C@@H]2C)cc2nc(-c3cc4ccc(-c5cccnc5-c5cncs5)nc4n3CC3CC3)n(C)c12 [Example 267, ((2S,5R)-5-amino-2-methylpiperidin-1-yl)(2-(1-(cyclopropylmethyl)-6-(2-(thiazol-5-yl)pyridin-3-yl)-1H-pyrrolo[2,3-b]pyridin-2-yl)-7-methoxy-1-methyl-1H-benzo[d]imidazol-5-yl)methanone]
77.3	COc1cc(C(=O)N2CCC[C@@H](N)[C@H]2C)cc2nc(-c3cc4ccc(N(C(F)F)S(C)(=O)=O)nc4n3CC3CC3)n(C)c12 [Example 33, N-(2-(5-((2R,3R)-3-amino-2-methylpiperidine-1-carbonyl)-7-methoxy-1-methyl-1H-benzo[d]imidazol-2-yl)-1-(cyclopropylmethyl)-1H-pyrrolo [2,3-b]pyridin-6-yl)-N-(difluoromethyl) methanesulfonamide]
166	COc1cc(C(=O)N2C[C@H](N)CCN2C)cc2nc(-c3cc4ccc([C@@H](C)NC(=O)c5cc(F)cc(F)c5)nc4n3CC3CC3)n(C)c12 [Example 156, N-((R)-1-(2-(5-((R)-5-amino-2-methylhexahydropyridazine-1-carbonyl)-7-methoxy-1-methyl-1H-benzo[d]imidazol-2-yl)-1-(cyclopropylmethyl)-1H-pyrrolo[2,3-b]pyridin-6-yl)ethyl)-3,5-difluorobenzamide]
1870	COc1cc(C(=O)N2C[C@H](N)CC[C@@H]2C)cc2nc(-c3cc4ccc(-c5cccnc5N5CCNCC5)nc4n3CC3CC3)n(C)c12 [Example 264, ((2S,5R)-5-amino-2-methylpiperidin-1-yl)(2-(1-(cyclopropylmethyl)-6-(2-(piperazin-1-yl)pyridin-3-yl)-1H-pyrrolo[2,3-b]pyridin-2-yl)-7-methoxy-1-methyl-1H-benzo[d]imidazol-5-yl)methanone]
79.3	COc1cc(C(=O)N2C[C@H]3CC[C@@H]2[C@@H]3N)cc2nc(-c3cc4ccc(N5[C@@H](C)CCCS5(=O)=O)nc4n3CC3CC3)n(C)c12 [Example 104, ((1R,4R,7R)-7-amino-2-azabicyclo[2.2.1]heptan-2-yl) (2-(1-(cyclopropylmethyl)-6-((S)-3-methyl-1,1-dioxido-1,2-thiazinan-2-yl)-1H-pyrrolo[2,3-b]pyridin-2-yl)-7-methoxy-1-methyl-1H-benzo[d]imidazol-5-yl) methanone]

Same assay, conditions: recombinant PAD4 5 nM, 2 mM calcium chloride, 3 mM BAEE substrate; geometric mean of multiple experiments

IC50 [nM]	Structure (SMILES)
72.7	COc1cc(C(=O)N2C[C@H](N)[C@@H]3CC[C@H]2C3)cc2nc(-c3cc4ccc([C@@H](C)NC(=O)c5cccnc5C(F)F)nc4n3CC3CC3)n(C)c12 [Example 305, N-((R)-1-(2-(5-((1S,4R,5R)-4-amino-2-azabicyclo[3.2.1]octane-2-carbonyl)-7-methoxy-1-methyl-1H-benzo[d]imidazol-2-yl)-1-(cyclopropylmethyl)-1H-pyrrolo[2,3-b]pyridin-6-yl)ethyl)-2-(difluoromethyl)nicotinamide]
84.2	COc1cc(C(=O)N2C[C@H](N)[C@@H]3CC[C@H]2C3)cc2nc(-c3cc4ccc([C@@H](C)NC(=O)[C@@]5(C)CC5(F)F)nc4n3CC3CC3)n(C)c12 [Example 332, (R)-N-((R)-1-(2-(5-((1S,4R,5R)-4-amino-2-azabicyclo[3.2.1]octane-2-carbonyl)-7-methoxy-1-methyl-1H-benzo[d]imidazol-2-yl)-1-(cyclopropylmethyl)-1H-pyrrolo[2,3-b]pyridin-6-yl)ethyl)-2,2-difluoro-1-methylcyclopropane-1-carboxamide]
